Experimental data taken from patent US20250064951A1, “DENDRITIC POLYELECTROLYTE ZWITTERIONS, JANUS-TYPE CONJUGATE COMPRISING SAME AND USES THEREOF” (ArtProBio Co., Ltd., priority 2023, published 2025).

Experiments:
HeLa cells = test: EGFP mRNA complex delivery and eGFP expression in HeLa cells by flow cytometry; assay type: cell-based; conditions: complex with EGFP mRNA
Protocol: HeLa cells were subcultured in DMEM supplemented with 10% FBS (fetal bovine serum), dispensed into each well at 1-3×10^4 cells/well, and cultured at 37° C. for 24 hours. The cells were treated with the (+6)2(−6)2_conjugate 2_complex or the (+6)2(−6)2_conjugate 3_complex at a concentration of […], respectively, and incubated at 37° C. for 4 hours. Afterwards, the cells were washed with Dulbecco's phosphate-buffered saline (DPBS), trypsinized, and resuspended in DPBS supplemented with 10% cell dissociation buffer (GIBCO) and 1% FBS. Then, the expressed eGFP (enhanced green fluorescent protein) was analyzed using a flow cytometer (BD LSR II SORT flow cytometer, BD Bioscience, USA).

BALB/c nude mice = test: In vivo delivery of EGFP mRNA complex, eGFP imaging by IVIS; conditions: subcutaneous injection, 0.1 mg/kg
Protocol: The complex ((+6)2(−6)2_conjugate 2_complex) was subcutaneously injected into BALB/c nude mice at 0.1 mg/kg, and then the expressed eGFP (enhanced green fluorescenct protein) was imaged and quantified with IVIS (in vivo imaging system). As a control group, only EGFP mRNA was used instead of the complex.

CCCCCCCCCCCCCCCCCCC[C@H](CCCCNC(=O)CCCCCCCCCCCCCCC)C(=O)NCCCCC(NC(=O)[C@H](CCCCNC(=O)[C@H](CCCCNC(=O)[C@H](CCC(=O)O)NC(=O)[C@H](CCC(=O)O)NC(=O)[C@H](CCC(=O)O)NC(=O)[C@H](CCC(=O)O)NC(=O)[C@H](CCC(=O)O)NC(=O)[C@H](CCC(=O)O)NC(C)=O)NC(=O)[C@H](CCCNC(=N)N)NC(=O)[C@H](CCCNC(=N)N)NC(=O)[C@H](CCCNC(=N)N)NC(=O)[C@H](CCCNC(=N)N)NC(=O)[C@H](CCCNC(=N)N)NC(=O)[C@H](CCCNC(=N)N)NC(C)=O)NC(=O)[C@H](CCCCNC(=O)[C@H](CCC(=O)O)NC(=O)[C@H](CCC(=O)O)NC(=O)[C@H](CCC(=O)O)NC(=O)[C@H](CCC(=O)O)NC(=O)[C@H](CCC(=O)O)NC(=O)[C@H](CCC(=O)O)NC(C)=O)NC(=O)[C@H](CCCNC(=N)N)NC(=O)[C@H](CCCNC(=N)N)NC(=O)[C@H](CCCNC(=N)N)NC(=O)[C@H](CCCNC(=N)N)NC(=O)[C@H](CCCNC(=N)N)NC(=O)[C@H](CCCNC(=N)N)NC(C)=O)C(N)=O (stereo partly drawn) [Example 7]
delivery of EGFP mRNA into cells (HeLa cells; 16 M or 32 M, 4 hours): successfully delivered the mRNA into the nucleus and cytoplasm of the cells
efficiency of eGFP protein expression from internalized EGFP mRNA (HeLa cells; flow cytometry): 82.9%
in vivo mRNA delivery and eGFP protein expression (IVIS) (BALB/c nude mice): successfully delivered the mRNA in vivo
